Source: patent US20190008870A1, “COMPOSITIONS AND METHODS FOR LIPID METABOLISM DISORDER” (JANSFAT BIOTECHNOLOGY CO., LTD., priority 2016, published 2019)

How the values were obtained:
PPARγ = PPARγ expression in HepG2 cells; format: cell-based; settings: for PPARγ expression: 10^−5 M, 24 hours, Control 100, Vehicle 260
Experimental: (§1) The HepG2 hepatoma cell line was purchased from the American Type Culture Collection (ATCC, Manassas, Va., U.S.A.). Cells were cultured in Dulbecco's Modified Eagle's Medium (DMEM). […] Then the targeted drugs solution was incubated with the cells for 24 hours, followed by protein extraction. […] HepG2 cells were treated with various concentrations of targeted drugs for 24 hours. Reactions were terminated by washing twice with cold PBS, and the cells were then harvested. Proteins in the whole-cell lysate were homogenized in an ice-cold lysis buffer and a protease inhibitor (Sigma-Aldrich, St. Louis, Mo., U.S.A.). The homogenate was centrifuged at 90,000×g for 15 minutes at 4° C., and supernatant was recovered as the total cellular protein. Cytosolic and membrane fractions of HepG2 cells were prepared using a CNM (Cytosol Nuclear Membrane) compartmental protein extraction kit (BioChain Institute Inc., Hayward, Calif., U.S.A.) according to the manufacturer's instructions. All of the fractionated protein solutions were stored at −80° C. until analysis. To measure the expression levels of proteins by drugs, the total cell protein was extracted after incubation with treatments for 24 hours and then Western blotting analysis was performed as described previously.

HMG CoA reductase = HMG CoA reductase expression in HepG2 cells (Western blotting); format: cell-based; settings: for HMGR (%): 24 hours, CTL 100; for HMG CoA expression: Mevalonate (100 μM) + drug (10^−5 M), Control 100
Experimental: The HepG2 hepatoma cell line was purchased from the American Type Culture Collection (ATCC, Manassas, Va., U.S.A.). Cells were cultured in Dulbecco's Modified Eagle's Medium (DMEM). The culture media was supplemented with 5% heat-inactivated FBS, penicillin (100 U/mL) and streptomycin (100 μg/mL). Cells were grown in a humidified atmosphere containing 5% CO2 at 37° C., in which the oxygen tension in the incubator was held at 140 mmHg (20% O2, v/v; normoxic conditions). […] Then the targeted drugs solution was incubated with the cells for 24 hours, followed by protein extraction. The targeted drugs were added to the […].
HepG2 cells were treated with various concentrations of targeted drugs for 24 hours. Reactions were terminated by washing twice with cold PBS, and the cells were then harvested. Proteins in the whole-cell lysate were homogenized in an ice-cold lysis buffer and a protease inhibitor (Sigma-Aldrich, St. Louis, Mo., U.S.A.). The homogenate was centrifuged at 90,000×g for 15 minutes at 4° C., and supernatant was recovered as the total cellular protein. Cytosolic and membrane fractions of HepG2 cells were prepared using a CNM (Cytosol Nuclear Membrane) compartmental protein extraction kit (BioChain Institute Inc., Hayward, Calif., U.S.A.) according to the manufacturer's instructions. All of the fractionated protein solutions were stored at −80° C. until analysis. To measure the expression levels of proteins by drugs, the total cell protein was extracted after incubation with treatments for 24 hours and then Western blotting analysis was performed as described previously.

ABCA1 = experiment: HFD-induced ABCA1 expression in liver; format: in vivo, mice
ROCK II [1] = experiment: HFD-induced ROCK II expression in liver; format: in vivo, mice; settings: for ROCK II: HFD mice, CTL 100
Experimental: In the experiment, C57BL/6J male mice (21-22 g), after fasting, were fed an HFD as a model of hyperlipidemia for 8 weeks. During the 2 month experiments, mice fasted for one night before the experiment was changed from a standard diet (STD) to an HFD and then the mice were randomly divided into 13 groups, including a protection group, 2 control and 10 treatment groups. Six mice were used in each group. […] Liver from the protection group supplemented with KMUP-1 HCl (1 mg/kg/day) were used to determine the HMG CoA reductase expression. Each group of mice had free access to drinking water from week 1 to week 14. Tap water was used to normalize mineral nutrition.
For the expression of SR-B1, HMGR, PPARγ and ROCK II, isolated liver tissues were cut into small chips and placed into an extraction buffer (Tris 10 mM, pH 7.0, NaCl 140 mM, PMSF 2 mM, DTT 5 mM, NP-40 0.5%, pepstatin A 0.05 mM and leupeptin 0.2 mM) for hepatic protein extraction, and centrifuged at 20,000×g for 30 minutes. The obtained protein extract was boiled to a ratio of 4:1 with a sample buffer (Tris 100 mM, pH 6.8, glycerol 20%, SDS 4% and bromophenol blue 0.2%). Electrophoresis was performed using 10% SDS-polyacrylamide gel (1 hour, 100 V, 40 mA, 20 μg protein per lane).
Separated proteins, after 3 repeated centrifugations to discard up-layer tissue lipid in purity, were transferred to PVDF membranes treated with 5% fat-free milk powder to block the nonspecific IgGs (90 minutes, 100 V) and incubated for 1 hour with specific protein antibody. The blot was then incubated with anti-mouse or anti-goat IgG linked to alkaline phosphatase (1:1000) for 1 hour.

ROCK II [2] = experiment: ROCK II expression in HepG2 cells; format: cell-based
Experimental: as §1, with “-80°” for “−80°”

[3] = HepG2 cells, GGPP (10 μM) + drug 10^−5 M
[4] = HepG2 cells, GGPP (10 μM) + drug 10^−6 M
[5] = HepG2 cells, GGPP (10 μM) + drug 10^−7 M
[6] = HepG2 cells, GGPP (10 μM) + drug 10^−8 M
[7] = HepG2 cells, GGPP (10 μM) + drug 10^−9 M
[8] = Simva 5 mg/kg, CTL 100 (Table 9)
[9] = 10^−5 M, 24 hours, Control 100, Vehicle 88

## CCC(C)(C)C(=O)O[C@H]1C[C@@H](C)C=C2C=C[C@H](C)[C@H](CC[C@@H]3C[C@@H](O)CC(=O)O3)[C@H]21 [Simva, Simvastatin, reference compound]
PPARγ; HepG2 cells
  PPARγ expression: 350
PPARγ; [3]
  PPARγ: 46%
PPARγ; [4]
  PPARγ: 46%
PPARγ; [5]
  PPARγ: 44%
PPARγ; [6]
  PPARγ: 40%
PPARγ; [7]
  PPARγ: 46%
HMG CoA reductase; 10^−5 M
  HMGR (%): 280%
HMG CoA reductase; 10^−8 M
  HMGR (%): 152%
HMG CoA reductase; 10^−9 M
  HMGR (%): 150%
HMG CoA reductase
  HMG CoA expression: 50%
ABCA1; [8]
  ABCA1: 100%
ROCK II [1]; [8]
  ROCKII: 43%
ROCK II [2]; [9]
  ROCK II expression: 45
ROCK II [2]; GGPP (10 μM) + drug 10^−5 M
  ROCKII: 210%
ROCK II [2]; GGPP (10 μM) + drug 10^−6 M
  ROCKII: 220%
ROCK II [2]; GGPP (10 μM) + drug 10^−7 M
  ROCKII: 200%
ROCK II [2]; GGPP (10 μM) + drug 10^−8 M
  ROCKII: 214%
ROCK II [2]; GGPP (10 μM) + drug 10^−9 M
  ROCKII: 210%

## Cn1c(=O)c2c(ncn2CCN2CCN(c3ccccc3Cl)CC2)n(C)c1=O [KMUP-1, 7-[2-[4-(2-chlorophenyl)piperazinyl]ethyl]-1,3-dimethylxanthine]
PPARγ; HepG2, 10^−9-10^−5 M
  expression of PPARγ: increased
PPARγ; HepG2 cells
  increase of PPARγ: 2-3 folds
  PPARγ expression: 595
PPARγ; HepG2 cells, FPP (10 μM) + drug 10^−5 M
  PPARγ: 138%
PPARγ; HepG2 cells, FPP (10 μM) + drug 10^−6 M
  PPARγ: 140%
PPARγ; HepG2 cells, FPP (10 μM) + drug 10^−7 M
  PPARγ: 142%
PPARγ; HepG2 cells, FPP (10 μM) + drug 10^−8 M
  PPARγ: 84%
PPARγ; HepG2 cells, FPP (10 μM) + drug 10^−9 M
  PPARγ: 72%
PPARγ; [3]
  PPARγ: 120%
PPARγ; [4]
  PPARγ: 106%
PPARγ; [5]
  PPARγ: 108%
PPARγ; [6]
  PPARγ: 90%
PPARγ; [7]
  PPARγ: 78%
HMG CoA reductase; 10^−5 M
  HMGR (%): 270%
HMG CoA reductase; 10^−6 M
  HMGR (%): 220%
HMG CoA reductase; 10^−7 M
  HMGR (%): 210%
HMG CoA reductase; 10^−8 M
  HMGR (%): 125%
HMG CoA reductase; 10^−9 M
  HMGR (%): 120%
HMG CoA reductase
  HMG CoA expression: 62%
ABCA1; HFD mice, 1 mg/kg, CTL 100
  ABCA1: 98%
ABCA1; HFD mice, 2.5 mg/kg, CTL 100
  ABCA1: 190%
ABCA1; HFD mice, 5 mg/kg, CTL 100
  ABCA1: 200%
ROCK II [1]; 1 mg/kg
  ROCK II: 30%
ROCK II [1]; 2.5 mg/kg
  ROCK II: 25%
ROCK II [1]; 5 mg/kg
  ROCK II: 10%
ROCK II [2]; [9]
  ROCK II expression: 41
ROCK II [2]; FPP (10 μM) + drug 10^−5 M
  ROCKII: 60%
ROCK II [2]; FPP (10 μM) + drug 10^−6 M
  ROCKII: 80%
ROCK II [2]; FPP (10 μM) + drug 10^−7 M
  ROCKII: 88%
ROCK II [2]; FPP (10 μM) + drug 10^−8 M
  ROCKII: 86%
ROCK II [2]; FPP (10 μM) + drug 10^−9 M
  ROCKII: 84%
ROCK II [2]; GGPP (10 μM) + drug 10^−5 M
  ROCKII: 40%
ROCK II [2]; GGPP (10 μM) + drug 10^−6 M
  ROCKII: 60%
ROCK II [2]; GGPP (10 μM) + drug 10^−7 M
  ROCKII: 108%
ROCK II [2]; GGPP (10 μM) + drug 10^−8 M
  ROCKII: 120%
ROCK II [2]; GGPP (10 μM) + drug 10^−9 M
  ROCKII: 112%
ROCK II [2]; Rp-8-pCPT-cGMPS + KMUP-1 (10 μM), Control 100
  ROCK II expression: 170
